How the values were obtained:
Format in all cases: in vivo
Avena fatua [1] = assay: Test Example 5: herbicidal effect by foliage application, plastic box (symbol I); conditions: 320 g/ha, 3 weeks after application
In short: (§1)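 Visual herbicidal score, taken three weeks post-application, of seedlings sprayed on the foliage with water-diluted emulsion at a predetermined amount; plants were 14 days old, greenhouse-raised at 25° C. to 30° C.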

Monochoria vaginalis = assay: Test Example 2: herbicidal activity, application during weed generation in submerged conditions (symbol C); conditions: Table 23; application herbicide amount 320 g/ha; grade 0-5 by criteria of Test Example 1
In short: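 Visual herbicidal ratings, taken three weeks after dosing, reflect post-emergence water-surface application to seedlings at one to two leaves. Conditions: co-sown weeds in alluvial soil flooded to 4 cm, greenhouse held at 25° C. to 30° C.; compound given as water-diluted emulsion at a fixed herbicide amount.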

Digitaria ciliaris [2] = assay: Test Example 4: herbicidal effect by soil treatment (symbol F); conditions: application herbicide amount 320 g/ha
In short: (§2)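 Seeds were sown in sterilized diluvial soil, covered with about 1.5 cm of soil, and the soil surface was sprayed with a water-diluted emulsion of the compound at a predetermined rate. Plants grew in a greenhouse at 25° C. to 30° C.; effects were scored visually 3 weeks after application.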

rapeseed [3] = assay: Test Example 5: effect on crop by foliage application, plastic box (symbol g); conditions: 320 g/ha, 3 weeks after application
In short: (§3)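 Soil: sterilized diluvial. Container: plastic box, 21 × 13 cm, 7 cm deep. Sowing: spot-like, ~1.5 cm cover. Growth: greenhouse, 25° C. to 30° C.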

Apera spica-venti [4] = assay: Test Example 5: herbicidal effect by foliage application, plastic box (symbol L); conditions: 320 g/ha, 3 weeks after application
In short: as §1

wheat = assay: Test Example 5: effect on crop by foliage application, plastic box (symbol e); conditions: 320 g/ha, 3 weeks after application
In short: as §3

Galium spurium = assay: Test Example 5: herbicidal effect by foliage application, plastic box (symbol Q); conditions: 320 g/ha, 3 weeks after application
In short: as §1

Alopecurus myosuroides = assay: Test Example 4: herbicidal effect by soil treatment (symbol J); conditions: application herbicide amount 320 g/ha
In short: as §2

Digitaria ciliaris [5] = assay: Test Example 5: herbicidal effect by foliage application, plastic box (symbol F); conditions: 320 g/ha, 3 weeks after application
In short: as §1

Avena fatua [6] = assay: Test Example 4: herbicidal effect by soil treatment (symbol I); conditions: application herbicide amount 320 g/ha
In short: as §2

Chenopodium album = assay: Test Example 5: herbicidal effect by foliage application, plastic box (symbol O); conditions: 320 g/ha, 3 weeks after application
In short: as §1

Amaranthus retroflexus = assay: Test Example 5: herbicidal effect by foliage application, plastic box (symbol N); conditions: 320 g/ha, 3 weeks after application
In short: as §1

[7] = tested on: Echinochloa crus-galli var. crus-galli; assay: Test Example 4: herbicidal effect by soil treatment (symbol H); conditions: application herbicide amount 320 g/ha
In short: as §2

rice = assay: Test Example 4: effect on crop by soil treatment (symbol b); conditions: application herbicide amount 320 g/ha
In short: (§4)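 Seeds were sown in spots on sterilized diluvial soil in a plastic box and covered with about 1.5 cm of soil. Plants were then grown in a greenhouse at 25° C. to 30° C.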

Stellaria media = assay: Test Example 5: herbicidal effect by foliage application, plastic box (symbol P); conditions: 320 g/ha, 3 weeks after application
In short: as §1

beet = assay: Test Example 4: effect on crop by soil treatment (symbol f); conditions: application herbicide amount 320 g/ha
In short: as §4

Apera spica-venti [8] = assay: Test Example 4: herbicidal effect by soil treatment (symbol L); conditions: application herbicide amount 320 g/ha
In short: as §2

[9] = tested on: directly sowed rice plant; assay: Test Example 3: effect on crop by foliage application, Wagner pot (symbol b); conditions: application herbicide amount 320 g/ha
In short: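 Wagner pot (1/10000 are), alluvial soil, submerged 0.1–0.5 cm; sown E. crus-galli var. crus-galli, L. chinensis, C. difformis, rice; greenhouse 25–30 °C.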

Abutilon theophrasti = assay: Test Example 5: herbicidal effect by foliage application, plastic box (symbol M); conditions: 320 g/ha, 3 weeks after application
In short: as §1

Veronica persica = assay: Test Example 5: herbicidal effect by foliage application, plastic box (symbol R); conditions: 320 g/ha, 3 weeks after application
In short: as §1

Lolium multiflorum Lam. [10] = assay: Test Example 4: herbicidal effect by soil treatment (symbol K); conditions: application herbicide amount 320 g/ha
In short: as §2

Lolium multiflorum Lam. [11] = assay: Test Example 5: herbicidal effect by foliage application, plastic box (symbol K); conditions: 320 g/ha, 3 weeks after application
In short: as §1

rapeseed [12] = assay: Test Example 4: effect on crop by soil treatment (symbol g); conditions: application herbicide amount 320 g/ha
In short: as §4

Row | Structure (SMILES) | I: Avena fatua, herbicidal effect (criteria of Test Example 1) (Avena fatua [1]) | Herbicidal effect grade, C: Monochoria vaginalis (Monochoria vaginalis) | F: Digitaria ciliaris, herbicidal effect grade (Digitaria ciliaris [2]) | g: rapeseed, effect on crop (criteria of Test Example 1) (rapeseed [3]) | L: Apera spica-venti, herbicidal effect (criteria of Test Example 1) (Apera spica-venti [4]) | e: wheat, effect on crop (criteria of Test Example 1) (wheat) | Q: Galium spurium, herbicidal effect (criteria of Test Example 1) (Galium spurium) | J: Alopecurus myosuroides, herbicidal effect grade (Alopecurus myosuroides) | F: Digitaria ciliaris, herbicidal effect (criteria of Test Example 1) (Digitaria ciliaris [5]) | I: Avena fatua, herbicidal effect grade (Avena fatua [6]) | O: Chenopodium album, herbicidal effect (criteria of Test Example 1) (Chenopodium album) | N: Amaranthus retroflexus, herbicidal effect (criteria of Test Example 1) (Amaranthus retroflexus) | H: Echinochloa crus-galli var. crus-galli, herbicidal effect grade [7] | b: directly sowed rice plant, effect on crop grade (rice) | P: Stellaria media, herbicidal effect (criteria of Test Example 1) (Stellaria media) | f: beet, effect on crop grade (beet) | L: Apera spica-venti, herbicidal effect grade (Apera spica-venti [8]) | effect on crop b (directly sowed rice plant), grade 0-5 [9] | M: Abutilon theophrasti, herbicidal effect (criteria of Test Example 1) (Abutilon theophrasti) | R: Veronica persica, herbicidal effect (criteria of Test Example 1) (Veronica persica) | also measured
1 | CON=C(C)CC1CC(O)=C(c2c(C)cc(-n3cncn3)cc2C)C1=O (stereo not drawn) [6-074] | 1 (Herbicidal ratio of 5% or higher and lower than 20%) | 0 (Herbicidal ratio of 5% or lower (almost no effect)) | 0 (Herbicidal ratio of 5% or lower (almost no effect)) | 0 (Herbicidal ratio of 5% or lower (almost no effect)) | 0 (Herbicidal ratio of 5% or lower (almost no effect)) | 0 (Herbicidal ratio of 5% or lower (almost no effect)) | 0 (Herbicidal ratio of 5% or lower (almost no effect)) | 0 (Herbicidal ratio of 5% or lower (almost no effect)) | 0 (Herbicidal ratio of 5% or lower (almost no effect)) | 0 (Herbicidal ratio of 5% or lower (almost no effect)) | 0 (Herbicidal ratio of 5% or lower (almost no effect)) | 0 (Herbicidal ratio of 5% or lower (almost no effect)) | 0 (Herbicidal ratio of 5% or lower (almost no effect)) | 3 (Herbicidal ratio of 40% or higher and lower than 70%) | 0 (Herbicidal ratio of 5% or lower (almost no effect)) | 0 (Herbicidal ratio of 5% or lower (almost no effect)) | 0 (Herbicidal ratio of 5% or lower (almost no effect)) | 1 (Herbicidal ratio of 5% or higher and lower than 20%) | 0 (Herbicidal ratio of 5% or lower (almost no effect)) | 0 (Herbicidal ratio of 5% or lower (almost no effect)) | K: Lolium multiflorum Lam., herbicidal effect grade (Lolium multiflorum Lam. [10]): 0 (Herbicidal ratio of 5% or lower (almost no effect)); K: Lolium multiflorum Lam., herbicidal effect (criteria of Test Example 1) (Lolium multiflorum Lam. [11]): 2 (Herbicidal ratio of 20% or higher and lower than 40%); g: rapeseed, effect on crop grade (rapeseed [12]): 0 (Herbicidal ratio of 5% or lower (almost no effect))
2 | CC#Cc1cc(C)c(C2=C(O)CC(CC(C)=O)C2=O)c(C)c1 (stereo not drawn) [7-010] | 4 (Herbicidal ratio of 70% or higher and lower than 90%) | 1 (Herbicidal ratio of 5% or higher and lower than 20%) |  | 4 (Herbicidal ratio of 70% or higher and lower than 90%) | 5 (Herbicidal ratio of 90% or more (almost completely withered)) | 5 (Herbicidal ratio of 90% or more (almost completely withered)) | 0 (Herbicidal ratio of 5% or lower (almost no effect)) |  | 5 (Herbicidal ratio of 90% or more (almost completely withered)) |  | 2 (Herbicidal ratio of 20% or higher and lower than 40%) | 1 (Herbicidal ratio of 5% or higher and lower than 20%) |  |  | 0 (Herbicidal ratio of 5% or lower (almost no effect)) |  |  | 5 (Herbicidal ratio of 90% or more (almost completely withered)) | 3 (Herbicidal ratio of 40% or higher and lower than 70%) | 4 (Herbicidal ratio of 70% or higher and lower than 90%) | Herbicidal effect grade, F: Digitaria ciliaris (Digitaria ciliaris [2]): 5 (Herbicidal ratio of 90% or more (almost completely withered)); Herbicidal effect grade, J: Alopecurus myosuroides (Alopecurus myosuroides): 5 (Herbicidal ratio of 90% or more (almost completely withered)); Herbicidal effect grade, I: Avena fatua (Avena fatua [6]): 2 (Herbicidal ratio of 20% or higher and lower than 40%); Herbicidal effect grade, H: Echinochloa crus-galli var. crus-galli [7]: 5 (Herbicidal ratio of 90% or more (almost completely withered)); Effect on crop grade, b: directly sowed rice plant (rice): 5 (Herbicidal ratio of 90% or more (almost completely withered)); Effect on crop grade, f: beet (beet): 0 (Herbicidal ratio of 5% or lower (almost no effect)); Herbicidal effect grade, L: Apera spica-venti (Apera spica-venti [8]): 5 (Herbicidal ratio of 90% or more (almost completely withered)); Herbicidal effect grade, K: Lolium multiflorum Lam. (Lolium multiflorum Lam. [10]): 5 (Herbicidal ratio of 90% or more (almost completely withered)); K: Lolium multiflorum Lam., herbicidal effect (criteria of Test Example 1) (Lolium multiflorum Lam. [11]): 5 (Herbicidal ratio of 90% or more (almost completely withered)); Effect on crop grade, g: rapeseed (rapeseed [12]): 3 (Herbicidal ratio of 40% or higher and lower than 70%)
3 | CON=C(C)CC1CC(O)=C(c2c(C)cc(Oc3ccccc3)cc2C)C1=O (stereo not drawn) [6-052] |  | 0 (Herbicidal ratio of 5% or lower (almost no effect)) | 4 (Herbicidal ratio of 70% or higher and lower than 90%) |  |  |  |  | 0 (Herbicidal ratio of 5% or lower (almost no effect)) |  | 0 (Herbicidal ratio of 5% or lower (almost no effect)) |  |  | 4 (Herbicidal ratio of 70% or higher and lower than 90%) | 1 (Herbicidal ratio of 5% or higher and lower than 20%) |  | 0 (Herbicidal ratio of 5% or lower (almost no effect)) | 5 (Herbicidal ratio of 90% or more (almost completely withered)) | 5 (Herbicidal ratio of 90% or more (almost completely withered)) |  |  | I: Avena fatua, herbicidal effect grade (Avena fatua [1]): 2 (Herbicidal ratio of 20% or higher and lower than 40%); g: rapeseed, effect on crop grade (rapeseed [3]): 3 (Herbicidal ratio of 40% or higher and lower than 70%); L: Apera spica-venti, herbicidal effect grade (Apera spica-venti [4]): 4 (Herbicidal ratio of 70% or higher and lower than 90%); e: wheat, effect on crop grade (wheat): 0 (Herbicidal ratio of 5% or lower (almost no effect)); Q: Galium spurium, herbicidal effect grade (Galium spurium): 0 (Herbicidal ratio of 5% or lower (almost no effect)); F: Digitaria ciliaris, herbicidal effect grade (Digitaria ciliaris [5]): 5 (Herbicidal ratio of 90% or more (almost completely withered)); O: Chenopodium album, herbicidal effect grade (Chenopodium album): 0 (Herbicidal ratio of 5% or lower (almost no effect)); N: Amaranthus retroflexus, herbicidal effect grade (Amaranthus retroflexus): 0 (Herbicidal ratio of 5% or lower (almost no effect)); P: Stellaria media, herbicidal effect grade (Stellaria media): 0 (Herbicidal ratio of 5% or lower (almost no effect)); M: Abutilon theophrasti, herbicidal effect grade (Abutilon theophrasti): 0 (Herbicidal ratio of 5% or lower (almost no effect)); R: Veronica persica, herbicidal effect grade (Veronica persica): 0 (Herbicidal ratio of 5% or lower (almost no effect)); K: Lolium multiflorum Lam., herbicidal effect grade (Lolium multiflorum Lam. [10]): 0 (Herbicidal ratio of 5% or lower (almost no effect)); K: Lolium multiflorum Lam., herbicidal effect grade (Lolium multiflorum Lam. [11]): 5 (Herbicidal ratio of 90% or more (almost completely withered)); g: rapeseed, effect on crop grade (rapeseed [12]): 3 (Herbicidal ratio of 40% or higher and lower than 70%)

Reference: patent US11000033B2, “Ketone or oxime compound, and herbicide” (NISSAN CHEMICAL CORPORATION, priority 2014, dated 2021)
